Patent US20250144067A1, “PERSONALIZED STARVATION THERAPY FOR CANCER” (Faeth Therapeutics, Inc., priority 2021, published 2025)
Like-named read-outs stand apart in the source and are kept apart here. Ends that are not written are not given here.

Columns and labels:
[1] = system: NCI-H292 lung cancer cells; assay: FDA drug screening, complete media vs cholesterol-free media with simvastatin (TABLE 2); assay type: cell-based, human
[2] = system: NCI-H292 lung cancer cells; assay: FDA drug screening, complete media vs cholesterol-free media without statin (TABLE 1); assay type: cell-based, human
[3] = NCI-H292 cells, FDA library drug in cholesterol-free media with simvastatin 0.04 μM
[4] = complete media vs cholesterol-free media + simvastatin (0.04 μM), […]
[5] = Complete minus Cholesterol-free, […]
[6] = NCI-H292 cells, FDA drug library screen, cholesterol-free media without statin
[7] = NCI-H292 cells, FDA drug library screen, complete media
[8] = NCI-H292 cells, FDA drug library screen, cholesterol-free media with simvastatin 0.04 μM
[9] = complete media minus cholesterol-free media + simvastatin, >0 enhanced anti-cancer activity, about 0 neutral, <0 antagonist
[10] = Complete minus Cholesterol-free, greater than 0 enhanced anti-cancer activity, about 0 neutral, below 0 antagonists
[11] = NCI-H292 cells in cholesterol-free media without statin
[12] = complete media minus cholesterol-free media + simvastatin (0.04 μM), […]
[13] = NCI-H292 cells, cholesterol-free media without statin, FDA drug library screen
[14] = NCI-H292 cells, complete media, FDA drug library screen
[15] = complete vs cholesterol-free media, […]
[16] = complete media minus cholesterol-free media + simvastatin, […]
[17] = NCI-H292 cells, cholesterol-free media without statin
[18] = NCI-H292 cells, drug in complete media
[19] = NCI-H292 cells, cholesterol-free media with simvastatin 0.04 μM, FDA drug library screen (TABLE 2)
[20] = NCI-H292 cells, complete media, FDA drug library screen (TABLE 2)
[21] = NCI-H292 cells, FDA library drug in complete media
[22] = NCI-H292 cells in complete media
[23] = NCI-H292 cells, drug in cholesterol-free media with simvastatin 0.04 μM
[24] = complete media vs cholesterol-free media + simvastatin (0.04 μM), >0 enhanced anti-cancer activity, about 0 neutral, <0 antagonist
[25] = Complete minus Cholesterol-free, greater than 0 enhanced anti-cancer activity, about 0 neutral, below 0 antagonist
[26] = Complete minus Cholesterol-free, >0 enhanced anti-cancer activity, about 0 neutral, <0 antagonist
[27] = complete vs cholesterol-free media, greater than 0 enhanced anti-cancer activity, about 0 neutral, below 0 antagonists
[28] = NCI-H292 cells, cholesterol-free media with simvastatin 0.04 μM, […]
[29] = NCI-H292 cells, complete media, […]
[30] = complete vs cholesterol-free media, >0 enhanced anti-cancer activity, about 0 neutral, <0 antagonist

Almotriptan (malate)
Cholesterol-free media + simvastatin (0.04 μM) [1, 3]: 1.642 | Difference [1, 4]: −0.54 | Difference [2, 5]: −0.08 | Cholesterol-free [2, 6]: 0.8422 | Complete [2, 7]: 0.7605

Alverine (citrate)
Cholesterol-free media + simvastatin (0.04 μM) [1, 8]: 0.4761 | Complete Media [1, 7]: 1.128 | Difference [1, 9]: 0.65 | Difference [2, 10]: −0.59 | Cholesterol-free [2, 11]: 1.703

Amlodipine (besylate)
Cholesterol-free media + simvastatin (0.04 μM) [1]: 1.186 | Difference [1]: −0.19 | Cholesterol-free [2]: 1.359 | Difference [2]: −0.33

Amlodipine (maleate)
Cholesterol-free media + simvastatin (0.04 μM) [1]: 1.087 | Complete Media [1]: 0.7885 | Difference [1]: −0.30 | Cholesterol-free [2]: 1.127 | Complete [2]: 0.9069 | Difference [2]: −0.22

Angiotensin II 5-valine (DRVYVHPF; Angiotensin-2; UniProt P01019 25-32, looked up, variant I5V)
Cholesterol-free media + simvastatin (0.04 μM) [1, 8]: 2.07 | Difference [1, 12]: −0.98 | Cholesterol-free [2, 13]: 0.8655 | Complete [2, 14]: 1.09 | Difference [2, 15]: 0.22

Angiotensin II human (acetate) (DRVYIHPF; also: acetate salt; UniProt P01019 25-32, looked up)
Complete Media [1, 7]: 1.355 | Difference [1, 16]: 0.21 | Difference [2, 5]: −0.23 | Cholesterol-free [2, 17]: 0.9412 | Complete ([2]; NCI-H292 cells, complete media): 0.7158

Angiotensin III (TFA) (RVYIHPF; also: TFA salt; UniProt P01019 26-32, looked up)
Complete Media [1, 18]: 0.8125 | Difference [1, 4]: −0.20 | Cholesterol-free [2, 17]: 1.338 | Complete ([2]; NCI-H292 cells, complete media): 0.9878 | Difference [2, 15]: −0.35

Aprotinin
Cholesterol-free media + simvastatin (0.04 μM) [1, 19]: 0.8532 | Complete Media [1, 20]: 0.8102 | Difference [1, 12]: −0.04 | Difference [2, 5]: −0.21 | Cholesterol-free [2, 17]: 0.7012 | Complete ([2]; NCI-H292 cells, complete media): 0.4863

Argipressin (CYFQNCPRG; not fully specified (C-terminus, bridges); cysteine pairing not given here; UniProt P01185 20-28, looked up)
Cholesterol-free media + simvastatin (0.04 μM) [1, 3]: 1.506 | Complete Media [1, 21]: 1.167 | Difference [1, 4]: −0.34 | Difference [2, 5]: −0.56 | Cholesterol-free [2, 11]: 1.358 | Complete [2, 22]: 0.7951

Asenapine (maleate)
Cholesterol-free media + simvastatin (0.04 μM) [1, 23]: 1.309 | Complete Media [1, 18]: 1.135 | Difference [1, 24]: −0.17 | Difference [2, 10]: −0.56 | Cholesterol-free [2, 11]: 1.49 | Complete [2, 22]: 0.9322

Atazanavir (sulfate)
Cholesterol-free media + simvastatin (0.04 μM) [1, 8]: 1.26 | Complete Media [1, 7]: 1.128 | Difference [1, 24]: −0.13 | Difference [2, 25]: −0.18 | Cholesterol-free [2, 6]: 1.207 | Complete [2, 7]: 1.022

Atosiban (acetate)
Cholesterol-free media + simvastatin (0.04 μM) [1, 3]: 1.587 | Difference [1, 4]: −0.52 | Cholesterol-free [2, 17]: 1.199 | Complete ([2]; NCI-H292 cells, complete media): 0.8162 | Difference [2, 15]: −0.38

Atracurium (besylate)
Cholesterol-free media + simvastatin (0.04 μM) [1, 23]: 1.369 | Difference [1, 24]: −0.26 | Difference [2, 10]: −0.49 | Cholesterol-free [2, 11]: 1.419 | Complete [2, 22]: 0.9276

Azatadine (dimaleate)
Cholesterol-free media + simvastatin (0.04 μM) [1, 19]: 1.086 | Complete Media [1, 20]: 1.047 | Difference ([1]; complete media minus cholesterol-free media + simvastatin (0.04 μM), >0 enhanced anti-cancer activity, about 0 neutral, <0 antagonist): −0.04 | Difference [2, 25]: −0.16 | Cholesterol-free [2, 6]: 1.286 | Complete [2, 7]: 1.13

Baricitinib (phosphate)
Cholesterol-free media + simvastatin (0.04 μM) [1, 8]: 0.6632 | Complete Media [1, 7]: 0.5619 | Difference [1, 4]: −0.10 | Difference [2, 5]: −0.20 | Cholesterol-free [2, 17]: 0.7762 | Complete ([2]; NCI-H292 cells, complete media): 0.5811

Bazedoxifene (acetate)
Cholesterol-free media + simvastatin (0.04 μM) [1, 8]: 0.4477 | Complete Media [1, 7]: 0.8485 | Difference [1, 9]: 0.40 | Difference [2, 26]: −0.29 | Complete ([2]; NCI-H292 cells, complete media): 0.8636

Bedaquiline (fumarate)
Cholesterol-free media + simvastatin (0.04 μM) ([1]; NCI-H292 cells, cholesterol-free media with simvastatin 0.04 μM, cell growth value in FDA drug screen): 0.9095 | Complete Media ([1]; NCI-H292 cells, complete media, cell growth value in FDA drug screen): 0.9785 | Difference [1, 9]: 0.07 | Cholesterol-free [2, 17]: 1.587 | Complete ([2]; NCI-H292 cells, complete media): 1.119 | Difference [2, 27]: −0.47

Benztropine (mesylate)
Cholesterol-free media + simvastatin (0.04 μM) [1]: 0.7872 | Complete Media [1]: 0.8586 | Difference [1]: 0.07 | Cholesterol-free [2]: 0.859 | Complete [2]: 0.7883 | Difference [2]: −0.07

Bephenium (hydroxynaphthoate)
Cholesterol-free media + simvastatin (0.04 μM) [1, 23]: 1.634 | Complete Media [1, 18]: 1.472 | Difference [1, 24]: −0.16 | Complete ([2]; NCI-H292 cells, complete media): 0.7234 | Difference [2, 27]: −0.43

Bismuth subgallate
Cholesterol-free media + simvastatin (0.04 μM) [1, 19]: 1.033 | Complete Media [1, 20]: 0.9832 | Difference [1, 12]: −0.05 | Difference [2, 5]: −0.19 | Cholesterol-free [2, 17]: 1.126

Bivalirudin (TFA)
Complete Media [1, 7]: 0.9368 | Difference [1, 4]: −0.13 | Cholesterol-free [2, 13]: 1.02 | Complete [2, 14]: 1.118 | Difference [2, 15]: 0.10

Bleomycin (hydrochloride)
Cholesterol-free media + simvastatin (0.04 μM) [1, 8]: 0.184 | Complete Media [1, 7]: 0.1023 | Difference [1, 4]: −0.08 | Cholesterol-free [2, 13]: 0.4328 | Complete [2, 14]: 0.5195 | Difference [2, 15]: 0.09

Bleomycin (sulfate)
Cholesterol-free media + simvastatin (0.04 μM) [1, 28]: 0.1778 | Complete Media [1, 29]: 0.2205 | Difference [1, 16]: 0.04 | Difference [2, 5]: −0.05 | Cholesterol-free [2, 13]: 0.05041 | Complete [2, 14]: −0.00442

Bremelanotide (Acetate)
Cholesterol-free media + simvastatin (0.04 μM) [1, 3]: 1.644 | Complete Media [1, 21]: 1.021 | Difference [1, 4]: −0.62 | Difference [2, 5]: −0.90 | Cholesterol-free [2, 11]: 1.638 | Complete [2, 22]: 0.7395

Bretylium (tosylate)
Complete Media [1, 21]: 0.8163 | Difference [1, 24]: −0.40 | Cholesterol-free [2, 13]: 0.5154 | Complete [2, 14]: 0.751 | Difference [2, 30]: 0.24

Brimonidine (tartrate)
Cholesterol-free media + simvastatin (0.04 μM) [1]: 1.704 | Complete Media [1]: 1.309 | Difference [1]: −0.39 | Cholesterol-free [2]: 1.093 | Complete [2]: 0.9545 | Difference [2]: −0.14

Bromocriptine (mesylate)
Cholesterol-free media + simvastatin (0.04 μM) [1, 23]: 0.9355 | Complete Media [1, 18]: 0.7343 | Difference [1, 4]: −0.20 | Difference [2, 5]: −0.12 | Cholesterol-free [2, 6]: 0.9359 | Complete [2, 7]: 0.8127

Brompheniramine (maleate)
Cholesterol-free media + simvastatin (0.04 μM) [1, 8]: 0.8932 | Complete Media [1, 7]: 1.189 | Difference [1, 9]: 0.30 | Difference [2, 10]: −0.54 | Cholesterol-free [2, 11]: 1.443 | Complete [2, 22]: 0.9065

Bulleyaconitine A
Difference [1, 16]: 0.03 | Difference [2, 5]: −0.17 | Cholesterol-free [2, 6]: 1.261 | Complete [2, 7]: 1.091

Butoconazole (nitrate)
Cholesterol-free media + simvastatin (0.04 μM) [1, 8]: 0.1838 | Complete Media [1, 7]: 0.9232 | Difference [1, 9]: 0.74 | Difference [2, 25]: −0.19 | Cholesterol-free [2, 6]: 0.9845 | Complete [2, 7]: 0.7977

Camostat (mesylate)
Cholesterol-free media + simvastatin (0.04 μM) [1, 3]: 1.328 | Difference [1, 24]: −0.30 | Cholesterol-free [2, 13]: 0.6104 | Complete [2, 14]: 0.9828 | Difference [2, 30]: 0.37

Capreomycin (sulfate)
Cholesterol-free media + simvastatin (0.04 μM) [1, 28]: 0.9008 | Complete Media [1, 29]: 0.9756 | Difference [1, 16]: 0.07 | Cholesterol-free [2, 17]: 1.728 | Complete ([2]; NCI-H292 cells, complete media): 1.371 | Difference [2, 15]: −0.36

Carbasalate calcium
Complete Media [1, 29]: 1.129 | Difference [1, 16]: 0.02 | Difference [2, 5]: −0.21 | Cholesterol-free [2, 17]: 1.087 | Complete ([2]; NCI-H292 cells, complete media): 0.8754

Carbetapentane (citrate)
Cholesterol-free media + simvastatin (0.04 μM) [1, 8]: 0.8092 | Complete Media [1, 7]: 1.195 | Difference [1, 9]: 0.39 | Difference [2, 26]: −0.21 | Cholesterol-free [2, 17]: 1.181 | Complete ([2]; NCI-H292 cells, complete media): 0.9736

Carbinoxamine maleate salt
Cholesterol-free media + simvastatin (0.04 μM) [1, 8]: 0.757 | Complete Media [1, 7]: 1.12 | Difference [1, 9]: 0.36 | Difference [2, 26]: −0.20 | Cholesterol-free [2, 17]: 1.129 | Complete ([2]; NCI-H292 cells, complete media): 0.9247

Catechin
Cholesterol-free media + simvastatin (0.04 μM) [1, 19]: 1.661 | Difference [1, 12]: −0.02 | Complete ([2]; NCI-H292 cells, complete media): 0.7264 | Difference [2, 15]: −0.38

Cetrorelix (Acetate)
Cholesterol-free media + simvastatin (0.04 μM) [1, 28]: 1.03 | Difference [1, 16]: 0.08 | Difference [2, 5]: −1.14 | Cholesterol-free [2, 11]: 1.889 | Complete [2, 22]: 0.7459
